From patent US20180002400A1, “SHORT PEPTIDE-BASED THERAPEUTIC AGENT AND MEDICINAL COMPOSITION INCLUDING THE SAME FOR INHIBITING ACTIVITIES OF CANCER CELLS” (NATIONAL CHENG KUNG UNIVERSITY, priority 2015, published 2018)

Key:
Type in all cases: cell-based, human
[1] = test system: nasopharyngeal cancer HONE1 cell; assay: Drug resistance (CDDP, 5-FU) induced by euPTX3, MTT assay; details: HONE1 only co-cultured with euPTX3 2.5 μg/mL vs without euPTX3; FIG. 3B
Experimental: (§1) The cell density 1×10^4 cells/well of the breast cancer MB231 cell, the lung cancer A549 cell and the nasopharyngeal cancer HONE1 cell were co-cultured with the short peptides RI37, GI40 and KT44 (10 μg/mL or 225 nM of the short peptide) and the polypeptide euPTX3 (2.5 μg/mL) of Example 1. After 1 week of cultivation, those cancer cells were added with 40 μM of CDDP or 100 μM of 5-FU respectively and cultured for 48 hours. Based on the cell viability of the cells only co-cultured with the polypeptide euPTX3 (2.5 μg/mL) as 100%, the influence of drug resistance of the cancer cells of Example 2 using the short peptides of Example 1 could be determined according to the aforementioned MTT assay.

lung cancer A549 cell [2] = assay: as above; details: A549 only co-cultured with euPTX3 2.5 μg/mL vs without euPTX3; FIG. 2B
Experimental: as §1

breast cancer MB231 cell = assay: as above; details: MB231 only co-cultured with euPTX3 2.5 μg/mL vs without euPTX3; FIG. 1D
Experimental: as §1

[3] = test system: drug-resistant breast cancer MB231R (MBR) cells; assay: Cancer cell invasion (matrigel-coated insert) induced by euPTX3
[4] = test system: nasopharyngeal cancer HONE1 cell; assay: as above; details: HONE1 only co-cultured with euPTX3 2.5 μg/mL; FIG. 3C right panel
Experimental: (§2) The cell density 5×10^4 cells/well of the breast cancer MB231 cell, the lung cancer A549 cell and the nasopharyngeal cancer HONE1 cell were seeded into each upper insert of 24-well plate (containing 8-μm pore insert per well; BD Biosciences), the upper insert and the lower well were separated by the polyethelene terephthalate membrane coated with matrigel (purchased from BD Bioscience), and cultured for 3 hours.
(§3) Next, the medium in each upper insert was replaced by serum-free medium, and the medium in each lower well was added with the short peptides RI37, GI40, KT44 and the polypeptide euPTX3 and pPTX3/C of Example 1. The cells inside each upper insert were wiped with cotton swabs and removed after 16 hours of cultivation. Remaining cells that had migrated to the bottom of the insert membrane were stained by 4′, 6-diamidino-2-phenylindole (DAPI; Invitrogen) and calculated under fluorescence microscopy with 200-fold magnification.

lung cancer A549 cell [5] = assay: as above; details: A549 only co-cultured with euPTX3 2.5 μg/mL; FIG. 2C right panel
Experimental: as §2, §3

[6] = test system: drug-resistant breast cancer MB231R (MBR) cells; assay: Cancer cell migration (Boyden chamber) induced by euPTX3
Experimental: [The procedure below names another cell line; the source lists this cell line under the same test.] (§4) The cell density 5×10^4 cells/well of the breast cancer MB231 cell, the lung cancer A549 cell and the nasopharyngeal cancer HONE1 cell were seeded into each upper insert of 24-well plate (containing 8-μm pore insert per well; BD Biosciences) for 19 hours, and each lower well was added with the short peptides RI37, GI40 and KT44 (10 μg/mL or 225 nM of the short peptide) and the polypeptide euPTX3 (2.5 μg/mL) of Example 1, for evaluating the influence of migration of the cancer cell of Example 2 using several short peptides of Example 1.
(§5) The cell density 5×10^4 cells/well of the breast cancer MB231 cell, the lung cancer A549 cell and the nasopharyngeal cancer HONE1 cell were seeded into each upper insert of Boyden chamber for 3 hours of cultivation.
as §3, with “And then,” for “Next,”, “euPTX3” for “euPTX3 and pPTX3/C”, “4′,6-diamidino-2-phenylindole” for “4′, 6-diamidino-2-phenylindole”

[7] = test system: nasopharyngeal cancer HONE1 cell; assay: as above; details: HONE1 only co-cultured with euPTX3 2.5 μg/mL; FIG. 3C left panel
Experimental: as §4, §5
as §3, with “And then,” for “Next,”, “euPTX3” for “euPTX3 and pPTX3/C”, “4′,6-diamidino-2-phenylindole” for “4′, 6-diamidino-2-phenylindole”

lung cancer A549 cell [8] = assay: as above; details: A549 only co-cultured with euPTX3 2.5 μg/mL; FIG. 2C left panel
Experimental: as §4, §5
as §3, with “And then,” for “Next,”, “euPTX3” for “euPTX3 and pPTX3/C”, “4′,6-diamidino-2-phenylindole” for “4′, 6-diamidino-2-phenylindole”

Molecule | drug resistance to CDDP or 5-FU (cell viability) [1] | drug resistance to CDDP or 5-FU (cell viability) (lung cancer A549 cell [2]) | drug resistance to CDDP or 5-FU (cell viability) (breast cancer MB231 cell) | invasive cell numbers ([3]; breast cancer cells only co-cultured with euPTX3 2.5 μg/mL, FIG. 1E, 5B right panels) | invasive cell numbers [4] | invasive cell numbers (lung cancer A549 cell [5]) | migrated cell numbers ([6]; breast cancer cells only co-cultured with euPTX3 2.5 μg/mL, FIG. 1E, 5B left panels) | migrated cell numbers [7] | migrated cell numbers (lung cancer A549 cell [8]) | invasive cell numbers induced by the polypeptide euPTX3 ([3]; MB231R (MBR), identical molecular number: euPTX3 2.5 μg/mL, RI37 3.7 μg/mL, GI40 4 μg/mL, pPTX3/C 10 μg/mL, FIG. 5B right panel) | migrated cell numbers induced by the polypeptide euPTX3 ([6]; MB231R (MBR), identical molecular number: euPTX3 2.5 μg/mL, RI37 3.7 μg/mL, GI40 4 μg/mL, pPTX3/C 10 μg/mL, FIG. 5B left panel)
euPTX3: commercially available PTX3 product (R&D system Inc.), recombinant protein purified from mouse myeloma cells (NS0) | increase drug resistance to CDDP or 5-FU | increase drug resistance to CDDP or 5-FU | increase drug resistance to CDDP or 5-FU | increase invasive cell numbers | increase invasive cell numbers | increase invasive cell numbers | increase migrated cell numbers | increase migrated cell numbers | increase migrated cell numbers | – | –
pPTX3/C: recombinant protein (SEQ ID NO:4) expressed and purified from prokaryotic expression system (E. coli); control group (protein, The 180th amino acid to 381th amino acid of Human sapiens PTX3 (pPTX3/C), control group) ETAILFPMRSKKIFGSVHPVRPMRLESFSACIWVKATDVLNKTILFSYGTKRNPYEIQLYLSYQSIVFVVGGEENKLVAEAMVSLGRWTHLCGTWNSEEGLTSLWVNGELAATTVEMATGHIVPEGGILQIGQEKNGCCVGGGFDETLAFSGRLTGFNIWDSVLSNEEIRETGGAESCHIRGNIVGWGVTEIQPHGGAQYVS | – | – | – | – | – | – | – | – | – | can inhibit invasive cell numbers | can inhibit migrated cell numbers
